The text below walks through data of ChEMBL document CHEMBL4265896, “Design and synthesis of potent RSK inhibitors” (Bioorg Med Chem Lett, 2018).

In series [1] the target is T1, Ribosomal protein S6 kinase alpha-3 (Homo sapiens, UniProt P51812). The series is described as follows: Inhibition of RSK2 (unknown origin) assessed as reduction in YB1 […] phosphorylation.
Series [2] addresses T1, Ribosomal protein S6 kinase alpha-3. The series is described as follows: Inhibition of RSK2 (unknown origin).
The nature of series [3]: Solubility of the compound in PBS buffer of pH 7.0. It is filed as physicochemical.
Series [4] deals with Tyrosine-protein kinase JAK1 (Homo sapiens, UniProt P23458). In words: Inhibition of JAK1 (unknown origin).
Series [5] deals with Fibroblast growth factor receptor 1 (Homo sapiens, UniProt P11362). The series is described as follows: Inhibition of FGFR1 (unknown origin).
Series [6] concerns the target Ribosomal protein S6 kinase beta-1 (Homo sapiens, UniProt P23443). In words: Inhibition of RPS6KB1 (unknown origin).
For series [7], the target named is Tyrosine-protein kinase JAK2 (Homo sapiens, UniProt O60674). In words: Inhibition of JAK2 (unknown origin).
The target of series [8] is Vascular endothelial growth factor receptor 2 (Homo sapiens, UniProt P35968). The series is described as follows: Inhibition of KDR (unknown origin).
In series [9] the target is Fibroblast growth factor receptor 2 (Homo sapiens, UniProt P21802). The series is described as follows: Inhibition of FGFR2 (unknown origin).
Series [10] is described as follows: Efflux ratio of permeability of the compound in human Caco2 cells. The format is ADME, cell-based. As to conditions: Caco-2.
Series [11] deals with T2, Tyrosine-protein kinase receptor UFO (Homo sapiens, UniProt P30530).
T2 sequence (P30530 whole entry): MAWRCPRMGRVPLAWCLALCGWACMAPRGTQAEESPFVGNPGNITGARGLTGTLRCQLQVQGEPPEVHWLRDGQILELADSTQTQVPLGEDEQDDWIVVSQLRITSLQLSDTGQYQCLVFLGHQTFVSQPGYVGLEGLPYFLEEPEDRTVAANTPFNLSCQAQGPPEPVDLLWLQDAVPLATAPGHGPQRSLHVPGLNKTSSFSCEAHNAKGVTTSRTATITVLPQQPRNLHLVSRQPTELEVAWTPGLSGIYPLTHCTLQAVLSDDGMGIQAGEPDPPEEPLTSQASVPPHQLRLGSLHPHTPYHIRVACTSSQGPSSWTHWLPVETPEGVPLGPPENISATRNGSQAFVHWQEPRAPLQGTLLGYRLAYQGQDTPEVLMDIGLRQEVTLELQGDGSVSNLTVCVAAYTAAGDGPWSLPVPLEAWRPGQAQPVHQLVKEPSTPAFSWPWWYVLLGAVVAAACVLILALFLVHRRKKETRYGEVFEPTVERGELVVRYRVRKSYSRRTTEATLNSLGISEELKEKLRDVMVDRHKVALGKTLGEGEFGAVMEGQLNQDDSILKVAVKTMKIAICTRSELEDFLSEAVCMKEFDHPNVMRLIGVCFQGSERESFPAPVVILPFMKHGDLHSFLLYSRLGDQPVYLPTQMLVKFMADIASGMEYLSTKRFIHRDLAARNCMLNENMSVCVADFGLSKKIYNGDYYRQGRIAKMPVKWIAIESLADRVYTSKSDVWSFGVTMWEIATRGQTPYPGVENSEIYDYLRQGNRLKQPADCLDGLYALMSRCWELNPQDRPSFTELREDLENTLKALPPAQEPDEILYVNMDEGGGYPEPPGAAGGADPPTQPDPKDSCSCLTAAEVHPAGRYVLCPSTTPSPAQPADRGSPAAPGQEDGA
In words: Inhibition of AXL (unknown origin).

The target of series [12] is T3, Receptor-type tyrosine-protein kinase FLT3 (Homo sapiens, UniProt P36888).
T3 sequence (P36888 whole entry): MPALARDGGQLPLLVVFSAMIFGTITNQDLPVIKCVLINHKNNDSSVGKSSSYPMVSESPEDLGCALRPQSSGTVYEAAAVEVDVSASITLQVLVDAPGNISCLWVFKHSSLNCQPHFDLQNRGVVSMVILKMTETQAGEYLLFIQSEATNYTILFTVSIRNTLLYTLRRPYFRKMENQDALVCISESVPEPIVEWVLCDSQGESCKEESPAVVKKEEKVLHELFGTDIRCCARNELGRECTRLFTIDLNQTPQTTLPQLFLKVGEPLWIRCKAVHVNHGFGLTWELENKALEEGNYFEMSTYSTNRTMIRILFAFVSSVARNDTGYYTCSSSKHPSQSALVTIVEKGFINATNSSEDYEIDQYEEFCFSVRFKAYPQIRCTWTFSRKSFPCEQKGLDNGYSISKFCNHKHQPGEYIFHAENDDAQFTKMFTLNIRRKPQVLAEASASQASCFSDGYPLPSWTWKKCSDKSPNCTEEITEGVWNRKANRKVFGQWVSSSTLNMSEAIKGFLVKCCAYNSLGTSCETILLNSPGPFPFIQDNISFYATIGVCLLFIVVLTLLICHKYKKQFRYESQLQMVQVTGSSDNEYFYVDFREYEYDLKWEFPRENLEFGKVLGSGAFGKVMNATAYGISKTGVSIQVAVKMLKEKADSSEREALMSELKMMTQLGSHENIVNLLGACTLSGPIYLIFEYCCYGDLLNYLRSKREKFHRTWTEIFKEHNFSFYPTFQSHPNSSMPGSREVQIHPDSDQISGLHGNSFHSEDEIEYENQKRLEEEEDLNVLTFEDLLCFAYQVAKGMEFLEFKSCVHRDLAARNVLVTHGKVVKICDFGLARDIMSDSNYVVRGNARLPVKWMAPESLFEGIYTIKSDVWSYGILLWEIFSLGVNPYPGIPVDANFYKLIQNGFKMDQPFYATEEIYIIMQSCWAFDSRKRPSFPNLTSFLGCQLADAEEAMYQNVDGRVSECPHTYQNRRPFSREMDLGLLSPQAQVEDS
The series is described as follows: Inhibition of FLT3 (unknown origin).

Series [13] addresses Proto-oncogene tyrosine-protein kinase receptor Ret (Homo sapiens, UniProt P07949). The series is described as follows: Inhibition of RET (unknown origin).

Converted amounts (≈) assume the structure as drawn.

T1 sequence (P51812 whole entry): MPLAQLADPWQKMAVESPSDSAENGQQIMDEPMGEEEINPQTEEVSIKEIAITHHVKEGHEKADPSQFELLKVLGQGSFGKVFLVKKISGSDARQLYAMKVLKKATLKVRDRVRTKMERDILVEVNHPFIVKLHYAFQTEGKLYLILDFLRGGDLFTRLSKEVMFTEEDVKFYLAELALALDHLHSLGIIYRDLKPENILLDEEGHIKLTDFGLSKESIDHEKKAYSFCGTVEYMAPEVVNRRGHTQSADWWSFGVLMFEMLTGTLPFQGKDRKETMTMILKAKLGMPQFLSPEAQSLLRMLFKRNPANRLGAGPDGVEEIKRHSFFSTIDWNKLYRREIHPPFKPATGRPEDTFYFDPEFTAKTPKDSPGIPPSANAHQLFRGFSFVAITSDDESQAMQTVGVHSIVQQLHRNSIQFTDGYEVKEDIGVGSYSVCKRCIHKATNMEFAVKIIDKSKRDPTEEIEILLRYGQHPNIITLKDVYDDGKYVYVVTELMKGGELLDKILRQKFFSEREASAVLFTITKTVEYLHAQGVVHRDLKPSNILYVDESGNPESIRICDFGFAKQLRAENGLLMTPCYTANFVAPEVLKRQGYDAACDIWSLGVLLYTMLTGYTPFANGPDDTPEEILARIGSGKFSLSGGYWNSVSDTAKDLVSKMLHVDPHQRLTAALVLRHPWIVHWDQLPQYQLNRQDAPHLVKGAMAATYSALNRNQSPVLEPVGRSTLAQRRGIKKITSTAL
Chain of Fibroblast growth factor receptor 1 (P11362 whole entry): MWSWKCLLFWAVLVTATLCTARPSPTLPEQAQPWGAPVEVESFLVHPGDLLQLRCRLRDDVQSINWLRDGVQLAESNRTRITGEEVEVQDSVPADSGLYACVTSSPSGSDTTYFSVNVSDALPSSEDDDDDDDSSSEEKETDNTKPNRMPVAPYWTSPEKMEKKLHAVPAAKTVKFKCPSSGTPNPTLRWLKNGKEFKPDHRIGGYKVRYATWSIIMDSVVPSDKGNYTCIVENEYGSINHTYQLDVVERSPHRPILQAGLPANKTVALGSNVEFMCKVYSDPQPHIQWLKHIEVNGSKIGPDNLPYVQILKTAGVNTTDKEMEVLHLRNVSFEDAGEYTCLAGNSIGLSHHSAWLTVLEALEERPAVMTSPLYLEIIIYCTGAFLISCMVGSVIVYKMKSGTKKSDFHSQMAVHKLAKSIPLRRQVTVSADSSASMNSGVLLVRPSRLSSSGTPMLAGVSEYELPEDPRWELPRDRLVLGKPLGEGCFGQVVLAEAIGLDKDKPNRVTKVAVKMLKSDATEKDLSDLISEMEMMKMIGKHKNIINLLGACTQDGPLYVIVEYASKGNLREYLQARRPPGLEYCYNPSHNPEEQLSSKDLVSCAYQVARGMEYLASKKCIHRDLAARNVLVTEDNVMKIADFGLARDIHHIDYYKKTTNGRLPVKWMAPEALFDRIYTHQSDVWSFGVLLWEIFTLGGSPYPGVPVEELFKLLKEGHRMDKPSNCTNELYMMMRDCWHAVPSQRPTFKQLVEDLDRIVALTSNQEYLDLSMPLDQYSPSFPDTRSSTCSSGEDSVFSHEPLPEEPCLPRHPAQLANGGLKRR
Chain of Ribosomal protein S6 kinase beta-1 (P23443 whole entry): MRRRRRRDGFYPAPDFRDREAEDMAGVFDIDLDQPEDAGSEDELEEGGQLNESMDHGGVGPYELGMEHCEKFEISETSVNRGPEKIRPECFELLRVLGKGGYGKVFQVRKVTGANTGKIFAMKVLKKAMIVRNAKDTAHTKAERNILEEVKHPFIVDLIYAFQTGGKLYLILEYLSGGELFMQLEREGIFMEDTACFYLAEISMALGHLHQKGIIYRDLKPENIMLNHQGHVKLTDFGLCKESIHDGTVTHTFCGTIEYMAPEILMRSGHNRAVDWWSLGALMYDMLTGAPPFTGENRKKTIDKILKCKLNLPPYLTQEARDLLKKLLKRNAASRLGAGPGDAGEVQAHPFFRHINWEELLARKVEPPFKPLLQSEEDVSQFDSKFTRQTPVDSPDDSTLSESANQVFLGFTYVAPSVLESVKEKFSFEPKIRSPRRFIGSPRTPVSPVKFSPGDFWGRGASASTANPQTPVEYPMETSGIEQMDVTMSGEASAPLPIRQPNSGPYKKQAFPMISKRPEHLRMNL
Chain of Vascular endothelial growth factor receptor 2 (P35968 whole entry): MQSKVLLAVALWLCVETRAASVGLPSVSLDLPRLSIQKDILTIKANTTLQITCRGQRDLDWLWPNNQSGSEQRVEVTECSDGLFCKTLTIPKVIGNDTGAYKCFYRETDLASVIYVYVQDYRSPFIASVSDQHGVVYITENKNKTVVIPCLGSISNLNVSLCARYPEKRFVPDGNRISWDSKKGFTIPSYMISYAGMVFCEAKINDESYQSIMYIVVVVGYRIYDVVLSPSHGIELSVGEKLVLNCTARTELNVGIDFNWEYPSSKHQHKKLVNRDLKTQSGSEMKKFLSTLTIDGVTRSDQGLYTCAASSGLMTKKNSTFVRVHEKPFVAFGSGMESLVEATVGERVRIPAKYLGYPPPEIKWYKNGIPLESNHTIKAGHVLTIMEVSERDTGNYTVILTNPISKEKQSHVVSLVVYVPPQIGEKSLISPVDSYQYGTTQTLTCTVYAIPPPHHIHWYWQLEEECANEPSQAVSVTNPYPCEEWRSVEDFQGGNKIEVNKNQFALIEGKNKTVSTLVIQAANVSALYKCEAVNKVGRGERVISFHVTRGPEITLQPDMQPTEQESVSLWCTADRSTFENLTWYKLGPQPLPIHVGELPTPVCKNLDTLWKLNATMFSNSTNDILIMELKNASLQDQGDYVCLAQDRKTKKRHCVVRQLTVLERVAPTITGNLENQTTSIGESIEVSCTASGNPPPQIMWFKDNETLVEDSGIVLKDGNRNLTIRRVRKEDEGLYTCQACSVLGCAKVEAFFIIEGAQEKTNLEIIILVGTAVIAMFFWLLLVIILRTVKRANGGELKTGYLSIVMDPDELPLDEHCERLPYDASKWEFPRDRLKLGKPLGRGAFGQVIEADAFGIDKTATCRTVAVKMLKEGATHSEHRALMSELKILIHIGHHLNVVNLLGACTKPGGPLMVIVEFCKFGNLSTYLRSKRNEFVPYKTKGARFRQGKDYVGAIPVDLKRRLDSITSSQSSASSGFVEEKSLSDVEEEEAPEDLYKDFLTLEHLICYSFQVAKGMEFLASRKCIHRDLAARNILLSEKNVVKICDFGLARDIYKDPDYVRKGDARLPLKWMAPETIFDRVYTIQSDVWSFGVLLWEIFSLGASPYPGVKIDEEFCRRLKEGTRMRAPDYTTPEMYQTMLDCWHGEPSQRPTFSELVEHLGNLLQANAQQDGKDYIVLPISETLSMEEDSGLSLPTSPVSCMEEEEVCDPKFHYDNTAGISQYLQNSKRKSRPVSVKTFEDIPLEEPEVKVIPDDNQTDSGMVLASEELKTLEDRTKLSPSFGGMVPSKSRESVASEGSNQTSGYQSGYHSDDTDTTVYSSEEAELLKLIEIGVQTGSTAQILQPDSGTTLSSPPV
Chain of Tyrosine-protein kinase JAK1 (P23458 whole entry): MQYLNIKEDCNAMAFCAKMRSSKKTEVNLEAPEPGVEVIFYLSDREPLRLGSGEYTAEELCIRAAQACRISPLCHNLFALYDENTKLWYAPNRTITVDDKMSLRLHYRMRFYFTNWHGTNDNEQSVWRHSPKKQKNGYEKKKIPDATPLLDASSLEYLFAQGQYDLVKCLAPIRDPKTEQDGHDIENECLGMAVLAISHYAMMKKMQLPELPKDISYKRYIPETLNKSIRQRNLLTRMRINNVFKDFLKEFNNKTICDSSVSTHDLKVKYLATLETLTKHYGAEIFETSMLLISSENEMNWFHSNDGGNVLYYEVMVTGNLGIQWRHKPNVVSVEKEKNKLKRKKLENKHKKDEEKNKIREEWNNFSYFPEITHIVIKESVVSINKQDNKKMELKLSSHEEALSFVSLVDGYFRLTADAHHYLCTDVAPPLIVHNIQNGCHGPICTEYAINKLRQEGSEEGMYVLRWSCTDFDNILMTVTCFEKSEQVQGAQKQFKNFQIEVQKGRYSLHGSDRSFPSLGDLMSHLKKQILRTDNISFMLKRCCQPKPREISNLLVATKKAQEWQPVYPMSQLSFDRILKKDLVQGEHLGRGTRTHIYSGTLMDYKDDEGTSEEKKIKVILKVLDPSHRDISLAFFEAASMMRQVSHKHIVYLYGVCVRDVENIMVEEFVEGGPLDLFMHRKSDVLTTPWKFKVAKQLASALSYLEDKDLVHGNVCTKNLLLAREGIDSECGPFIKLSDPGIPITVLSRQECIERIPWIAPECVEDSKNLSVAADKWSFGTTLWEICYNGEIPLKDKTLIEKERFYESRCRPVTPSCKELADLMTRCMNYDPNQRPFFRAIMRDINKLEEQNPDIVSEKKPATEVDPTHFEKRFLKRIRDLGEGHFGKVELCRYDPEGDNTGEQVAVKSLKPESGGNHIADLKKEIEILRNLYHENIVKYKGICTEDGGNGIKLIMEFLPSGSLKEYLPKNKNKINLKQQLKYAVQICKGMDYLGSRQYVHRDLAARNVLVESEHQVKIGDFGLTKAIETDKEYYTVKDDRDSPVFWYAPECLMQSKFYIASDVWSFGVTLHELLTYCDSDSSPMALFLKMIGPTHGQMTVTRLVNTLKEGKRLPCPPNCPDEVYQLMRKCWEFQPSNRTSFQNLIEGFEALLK

What is called IC50 is the concentration that gives 50% inhibition. Consider `CN1CCN(c2ccc(-c3c(-c4ccc(N)nc4)cnc4[nH]ccc34)cc2)CC1`, for which the IC50 in series [1] was 7200 nM; in series [2] it was 810 nM.

For `Oc1c(F)cc(-c2cnccc2-c2ccc(N3CCOCC3)cc2)cc1F`, the IC50 in [1] turned out to be 210 nM.

Consider `CN1CCN(c2ccc(-c3c(-c4ccnc(F)c4)cnc4[nH]ccc34)cc2)CC1`, for which the IC50 in [1] was more than 20000 nM; in [2], 1100 nM.

As to `CN1CCN(c2ccc(-c3c(-c4cn[nH]c4)cnc4[nH]ccc34)cc2)CC1`, the figures for the IC50 in series [1] and in [2] were 2400 nM and 240 nM, respectively.

As to `CN1CCN(c2ccc(-c3ccncc3-c3cc(F)c(O)c(F)c3)cc2)CC1`, the IC50 in series [1] worked out at 340 nM.

For `Cc1ccc(-c2c(-c3cc(F)c(O)c(F)c3)cnc3[nH]ccc23)cc1`, the results for the IC50 in [1] and in [2] were 232 nM and 2 nM, respectively.

As for `CN1CCN(c2ccc(-c3c(-c4ccc(F)cc4)cnc4[nH]ccc34)cc2)CC1`, the half-maximal inhibitory concentration (IC50) in series [1] was more than 20000 nM; in series [2], 1900 nM.

With `COc1c(F)cc(-c2cnc3[nH]ccc3c2-c2ccc(N3CCN(C)CC3)cc2)cc1F`, the IC50 is more than 20000 nM in series [1] and 500 nM in [2].

Broadly, the solubility is how much of the substance goes into solution per volume. Read a low solubility as little dissolved substance. For the compound `Oc1c(F)cc(-c2cnc3[nH]ccc3c2-c2ccc(N3CCOCC3)cc2)cc1F`, the IC50 in series [1] stood at 50 nM; in series [2] it was 2 nM. In addition, the solubility in series [3] is less than 0.22 µg/mL.

Consider `Oc1ccc(-c2cn[nH]c2-c2ccc(O)cc2)cc1`, for which the values for the IC50 in series [1] and in series [2] were 2800 nM and 20 nM, respectively.

As for `CN1CCN(c2ccc(-c3c(-c4cc(F)cc(F)c4)cnc4[nH]ccc34)cc2)CC1`, the values for the IC50 in series [1] and in [2] were 6000 nM and 38 nM, respectively.

Consider `CN1CCN(c2ccc(-c3c(-c4ccc(C(F)F)cc4)cnc4[nH]ccc34)cc2)CC1`, for which the figures for the IC50 in series [1] and in [2] were 18100 nM and 800 nM, respectively.

As usually defined, the efflux ratio is the permeability from basolateral to apical divided by that in the opposite direction, in the common usage. On to `CN1CCN(c2ccc(-c3c(-c4cc(F)c(O)c(F)c4)cnc4[nH]ccc34)cc2)CC1`, for which the IC50 was 54 nM in series [1]; less than 1000 nM in [4]; less than 1000 nM in [5]; 120 nM in series [6]; less than 1000 nM in series [7]; less than 1000 nM in [8]. Further, the IC50 is 0.3 nM in [2]; less than 1000 nM in [9]; less than 1000 nM in series [11]; 120 nM in [12]; less than 1000 nM in [13]. In addition, in series [10], the efflux ratio stood at 0.8. The same compound registered a solubility in series [3] of 10.3 µg/mL (≈ 24.5 µM).
